Key:
[1] = system: M. tuberculosis (H37Rv strain); experiment: Mtb growth in minimal media with a defined sole carbon source; details: 100 μg/mL
Helicobacter pylori = details: recent work; cited from earlier work
[2] = system: M. tuberculosis (H37Rv strain); experiment: Direct effect of cholestenone on Mtb growth in broth culture (absorbance, CFU); details: bacilli growing in broth culture
[3] = system: host and Mtb methylmalonyl-CoA mutase; details: host and Mtb enzyme; cited from earlier work
Mtb isocitrate lyase(s) = details: Mtb enzyme, methylcitrate cycle; cited from earlier work

C[C@H](CCCC(C)(C)O)[C@H]1CC[C@H]2[C@@H]3CC=C4C[C@@H](O)CC[C@]4(C)[C@H]3CC[C@]12C [25-HC, 25-hydroxycholesterol]
growth of Mtb with the substance as sole carbon source [1]: grew

CC(C)CCC[C@@H](C)[C@H]1CC[C@H]2[C@@H]3CCC4=CC(=O)CC[C@]4(C)[C@H]3CC[C@]12C [cholestenone, 4-cholesten-3-one]
antimicrobial activity against Helicobacter pylori (Helicobacter pylori): has antimicrobial activity
direct antimicrobial activity (toxicity) against Mtb [2]: not directly toxic to Mtb

CC(C)CCC[C@@H](C)[C@H]1CC[C@H]2[C@@H]3CC=C4C[C@@H](O)CC[C@]4(C)[C@H]3CC[C@]12C [cholesterol]
growth of Mtb with the substance as sole carbon source [1]: grew

C=C(CC(=O)O)C(=O)O [itaconate, itaconic acid]
inhibition of methylmalonyl-CoA mutase [3]: inhibits
inhibition of isocitrate lyase(s) (Mtb isocitrate lyase(s)): inhibits

— patent publication US12716904B2, “Compositions and methods for the detection of tuberculosis” (Washington University, priority 2021, dated 2026)
